Test results reported in the NIST ThermoML archive (doi:10.1021/acs.jced.8b00217).

Assays:
[1] = refractive index (Na D-line) (dimensionless); xn = mol fraction of the nth substance listed; details: 298.15 K, 101.3 kPa, Liquid, Standard Abbe refractometry
[2] = relative permittivity at various frequencies (dimensionless); xn = mol fraction of the nth substance listed; details: 298.15 K, 101.3 kPa, Liquid, Frequency=0.01 MHz, Coaxial cylinder capacitor
[3] = xn = mol fraction of the nth substance listed; details: 298.15 K, 101.3 kPa, Liquid, Vibrating tube method
[4] = refractive index (Na D-line) (dimensionless); details: 298.15 K; 101.3 kPa; Liquid; Standard Abbe refractometry
[5] = 298.15 K; 101.3 kPa; Liquid; Vibrating tube method
[6] = relative permittivity at various frequencies (dimensionless); details: 298.15 K; 101.3 kPa; Liquid; Frequency=0.01 MHz; Coaxial cylinder capacitor

C1CCCCC1 [cyclohexane] + O=C1CCCC1
x2 = 0
Details	refractive index	relative permittivity
[1]	1.4235	–
[2]	–	2.02

CCCCO [butan-1-ol] + O=C1CCCC1
x2 = 0
Details	mass density [kg/m3]	refractive index	relative permittivity
[1]	–	1.3971	–
[2]	–	–	17.49
[3]	805.92	–	–

CCCCCCO [hexan-1-ol] + O=C1CCCC1
x2 = 0
Details	mass density [kg/m3]	refractive index	relative permittivity
[1]	–	1.4161	–
[2]	–	–	13.09
[3]	815.99	–	–

CCCCCCCCO [octan-1-ol] + O=C1CCCC1
x2 = 0
Details	mass density [kg/m3]	refractive index	relative permittivity
[1]	–	1.4276	–
[2]	–	–	9.85
[3]	821.98	–	–

O=C1CCCC1 [cyclopentanone] + CCCCCCO
Details	mass density, [3] [kg/m3]	refractive index, [1]	relative permittivity, [2]
x1 = 0.1	823.87	1.4175	12.44
x1 = 0.2	832.61	1.4189	12
x1 = 0.3	842.44	1.4204	11.68
x1 = 0.4	853.65	1.4221	11.51
x1 = 0.5	866.02	1.4239	11.48
x1 = 0.6	879.48	1.4258	11.59
x1 = 0.7	894.17	1.4279	11.87
x1 = 0.8	909.92	1.4301	12.27
x1 = 0.9	926.64	1.4324	12.83
x1 = 1	944.31	1.4347	13.52

CCCCCCCCCCO [decan-1-ol]
Details	mass density [kg/m3]	refractive index	relative permittivity
[4]	–	1.4352	–
[5]	826.71	–	–
[6]	–	–	7.74

CCCCCCO [hexan-1-ol]
Details	mass density [kg/m3]	refractive index	relative permittivity
[4]	–	1.4161	–
[5]	815.99	–	–
[6]	–	–	13.09

CCO [ethanol]
Details	mass density [kg/m3]	refractive index	relative permittivity
[4]	–	1.3594	–
[5]	785.26	–	–
[6]	–	–	24.37

O=C1CCCC1 [cyclopentanone] + CCO
Details	mass density, [3] [kg/m3]	refractive index, [1]	relative permittivity, [2]
x1 = 0.1	811.02	1.3696	22.42
x1 = 0.2	833.48	1.3793	20.69
x1 = 0.3	853.69	1.3884	19.16
x1 = 0.4	871.79	1.3968	17.78
x1 = 0.5	888.17	1.4046	16.6
x1 = 0.6	902.91	1.4117	15.59
x1 = 0.7	915.99	1.4182	14.77
x1 = 0.8	927.18	1.4242	14.16
x1 = 0.9	936.58	1.4296	13.75
x1 = 1	944.31	1.4347	13.52

CCCCO [butan-1-ol]
Details	mass density [kg/m3]	refractive index	relative permittivity
[4]	–	1.3971	–
[5]	805.92	–	–
[6]	–	–	17.49

O=C1CCCC1 [cyclopentanone] + CCCCCCCCCCO
Details	mass density, [3] [kg/m3]	refractive index, [1]	relative permittivity, [2]
x1 = 0.1	829.38	1.4345	7.75
x1 = 0.2	833.22	1.4339	7.84
x1 = 0.3	839.24	1.4335	8.07
x1 = 0.4	847.47	1.4333	8.43
x1 = 0.5	857.91	1.4332	8.93
x1 = 0.6	870.34	1.4332	9.56
x1 = 0.7	884.81	1.4333	10.34
x1 = 0.8	901.52	1.4336	11.27
x1 = 0.9	921.01	1.4341	12.31
x1 = 1	944.31	1.4347	13.52
